The text below walks through data of patent CN103739655A, “28-O-β-D-葡萄糖基化远志皂苷、其制备方法及用途” (Individual, priority 2013, dated 2014).

What is called inhibition is the change of the read-out against control, counted positive when it falls.

Holding throughout (type): in vivo
The subject of experiment [1] is carrageenan-induced rat paw swelling (角叉菜胶致大鼠足肿胀模型). Put plainly: carrageenan-induced paw swelling model in rats. The note with it: intragastric; for 1 h swelling degree / 3 h swelling degree / 5 h swelling degree / 7 h swelling degree: once daily for 3 days; for 1 h swelling degree: 1 h after carrageenan, control 0.41±0.12; for 3 h swelling degree: 3 h after carrageenan, control 0.83±0.13; for 5 h swelling degree: 5 h after carrageenan, control 0.70±0.12; for 7 h swelling degree: 7 h after carrageenan, control 0.63±0.11. Background: The carrageenan paw model is a standard test of acute inflammation.

Experiment [2] has as its system xylene-induced mouse ear swelling (二甲苯所致小鼠耳肿胀模型). Put plainly: xylene-induced ear swelling model in mice. Conditions: intragastric.
Experiment [3] deals with rat AA model (大鼠AA模型). As to the kind of experiment: rat AA model (FCA-induced primary inflammation). Conditions: for 6 h swelling degree / 12 h swelling degree / 18 h swelling degree / 24 h swelling degree: intragastric from 3 days before FCA; for 6 h swelling degree: 6 h after FCA, control 0.49±0.06; for 12 h swelling degree: 12 h after FCA, control 0.54±0.07; for 18 h swelling degree: 18 h after FCA, control 0.64±0.07; for 24 h swelling degree: 24 h after FCA, control 0.50±0.06.

Setting [4] is: 25, 50, 100 mg/kg, intragastric.

In the case of 28-O-β-D-葡萄糖基化远志皂苷, in experiment [1] (25 mg/kg (low dose)), the “1 h swelling degree” value worked out at 0.33 ± 0.05 mL, the “3 h swelling degree” value turned out to be 0.64 ± 0.16 mL, the “5 h swelling degree” value stood at 0.48 ± 0.13 mL and the “7 h swelling degree” value was 0.33 ± 0.07 mL. In addition, in experiment [1] (50 mg/kg (medium dose)), the “1 h swelling degree” value stood at 0.17 ± 0.05 mL, the “3 h swelling degree” value came to 0.45 ± 0.12 mL, the “5 h swelling degree” value was determined as 0.39 ± 0.07 mL and the “7 h swelling degree” value worked out at 0.19 ± 0.05 mL. Besides, in experiment [1] (100 mg/kg (high dose)), the “1 h swelling degree” value amounted to 0.11 ± 0.05 mL, the “3 h swelling degree” value was 0.37 ± 0.13 mL, the “5 h swelling degree” value was 0.31 ± 0.08 mL and the “7 h swelling degree” value was 0.16 ± 0.09 mL. In experiment [1] (25, 50, 100 mg/kg), the “concentration dependence of inhibition of rat paw swelling” value was “具有一定的浓度依赖性” and the “inhibition of carrageenan-induced rat paw swelling” value is on record as “有抑制作用”. In addition, the inhibition rate in experiment [2] (25 mg/kg (low dose), once daily for 3 days, ear swelling vs control, P<0.05) is recorded as 6.5%. Also, the inhibition rate in experiment [2] (50 mg/kg (medium dose), once daily for 3 days, ear swelling vs control, P<0.01) is reported as 39.1%. For the same compound, the inhibition rate in experiment [2] (100 mg/kg (high dose), once daily for 3 days, ear swelling vs control, P<0.01) is 48.4%. Also, the “inhibition of xylene-induced acute inflammation of mouse auricle” value in experiment [2] (25, 50, 100 mg/kg) is “能抑制”. In experiment [3] (25 mg/kg (low dose)), the “6 h swelling degree” value is 0.45 ± 0.05 mL, the “12 h swelling degree” value is 0.51 ± 0.16 mL, the “18 h swelling degree” value was found to be 0.61 ± 0.13 mL and the “24 h swelling degree” value came out at 0.46 ± 0.15 mL. In experiment [3] (50 mg/kg (medium dose)), the “6 h swelling degree” value was 0.28 ± 0.05 mL, the “12 h swelling degree” value came out at 0.30 ± 0.08 mL, the “18 h swelling degree” value is 0.33 ± 0.06 mL and the “24 h swelling degree” value is 0.27 ± 0.07 mL. In experiment [3] (100 mg/kg (high dose)), the “6 h swelling degree” value came to 0.15 ± 0.06 mL, the “12 h swelling degree” value came to 0.19 ± 0.08 mL, the “18 h swelling degree” value was 0.30 ± 0.07 mL and the “24 h swelling degree” value was found to be 0.25 ± 0.06 mL. Also, in experiment [3] (setting [4]), the “concentration dependence of inhibition of primary inflammation in AA rats” value was “具有一定的浓度依赖性” and the “inhibition of FCA-induced primary inflammation in AA rats” value is on record as “有明显的抑制作用”.

For the compound `COc1ccc2cc([C@H](C)C(=O)O)ccc2c1` [萘普生, reference compound], in experiment [1] (30 mg/kg), the “1 h swelling degree” value came out at 0.08 ± 0.07 mL, the “3 h swelling degree” value turned out to be 0.21 ± 0.05 mL, the “5 h swelling degree” value stood at 0.13 ± 0.08 mL and the “7 h swelling degree” value turned out to be 0.12 ± 0.07 mL. For the same compound, in experiment [2] (Mus musculus, po, 72 h, 45 mg/kg, once daily for 3 days, ear swelling vs control, P<0.01, read-out: inhibition rate), the inhibition at 45 mg/kg worked out at 45.7%. Moreover, in experiment [3] (30 mg/kg), the “6 h swelling degree” value amounted to 0.16 ± 0.09 mL, the “12 h swelling degree” value worked out at 0.22 ± 0.07 mL, the “18 h swelling degree” value turned out to be 0.29 ± 0.08 mL and the “24 h swelling degree” value stood at 0.28 ± 0.06 mL.
